“And” between values parts separate entries of the source, which are not always exact repeats. Identical values can stand only once. “Also recorded” adds a separate entry of the source.

The values that follow come from patent US4248864A, “Reproduction control” (American Home Products Corporation, priority 1979, dated 1981).

For test [1], the system named is Female Charles River CD rats (pregnancy). Nature of the test: Post-coital contraceptive effect in the rat: single intrauterine (right horn) administration on D5 of pregnancy. It counts as in vivo. Particulars: for Number of placental sites, left horn / Number of placental sites, right horn (injected) / Number of viable fetuses, left horn / Number of viable fetuses, right horn (injected) / Uterine weight, left horn and contents / Uterine weight, right horn (injected) and contents: autopsy D20, 15 rats/group; for Uterine weight, left horn and contents / Uterine weight, right horn (injected) and contents: in g. The procedure: Female Charles River CD® rats (200-210 g) were allowed to cohabit with proven males; the presence of sperm in the vaginal smear was considered day 1 (D1) of pregnancy. In order to lessen the problem of variability between experiments, 5 rats were autopsied at each dose level and the study replicated 3 times to accumulate a total of 15 rats in each experimental group. Luteinizing hormone-releasing hormone was dissolved in 2 μl of 0.9% NaCl and injected into the right horn of the uterus below the utero-tubal junction between 0945 and 1015 h on D5. One group of control animals received an intrauterine (IU) injection of 2 μl saline into the right horn on D5. The control animals were autopsied in groups of 5 rats and replicated 3 times to accumulate a total of 15 rats. On D20 the rats were sacrificed, and the uterine horns were divided and weighed individually. The number of viable fetuses as well as the number of placental sites in each horn was recorded. Fetuses from both horns, in control and experimental groups, were examined and weighed individually. A viable fetus is defined as one which compares in anatomical development and weight to a normal control fetus at D20 of gestation. Statistical analysis of the number of viable fetuses and placental sites in each horn was determined by the Kruwalc-Henderson method (Proc. Third Am. Conference of the SAS Users Group International, SAS Institute, Raleigh, North Carolina (1978)); uterine weights of each horn were subjected to analysis of variance (Conover, Practical Nonparametric Statistics, N.Y. John Wiley and Sons, Inc. page 256 (1979)).
Following the same procedure, [D-Trp^6, des-Gly-NH2^10 ]LHRH ethylamide (a representative LHRH agonist analogue) was injected into the uterine lumen of the right uterine horn of female Charles River CD® rats on day 5 after coitus. The status of the pregnancy as indicated by viable fetuses was as follows: […]

In test [2] the test system is zona pellucida of blastocyst. In words: In vitro removal (lysis) of the zona pellucida of a blastocyst. The class given is cell-based. The source says:
To denude a blastocyst of its zona pellucide in vitro the fertilized ovum is removed from the uterus of the donor animal by known means. The blastocyst is then placed in a small volume of known compatable medium such as physiological saline and LHRH or an agonist is introduced into the medium. The course of removal of the zona pellucida may be readily followed with a microscope and the time period necessary for complete removal of the zona is related to the concentration of the releasing hormone, thereby permitting timed blastocyst release during egg transplant procedures. At 500 μg/μl LHRH in 0.9 percent saline the zona pellucida lyses in about 0.5 minutes; at 50 μg/μl in about 15 to 25 minutes and at 15 μg/μl in about 60 minutes. Recovery of the free blastocyst and transfer to the uterus of a properly prepared and timed mammalion species may then be effected by conventional transfer techniques under optimal timing conditions of both the fertilized egg and the uterine epithelium.

The test system of test [3] is Female Charles River CD rats (pregnancy). In words: Single intravaginal or intrajugular administration on D5 of pregnancy. The class given is in vivo, rat. Conditions: for Number of placental sites, left horn / Number of placental sites, right horn / Number of viable fetuses, left horn / Number of viable fetuses, right horn / Uterine weight, left horn / Uterine weight, right horn: 5 rats/group; for Uterine weight, left horn / Uterine weight, right horn: in g.

In another test the test system is pregnancy. Conditions: cited from earlier work.
Setting [4] is: 10 μg into right uterine horn day 5 after coitus, 4 rats.
Where [5] appears, read: 100 μg into right uterine horn day 5 after coitus, 5 rats.
Where [6] appears, read: 1,000 μg into right uterine horn day 5 after coitus, 4 rats.
[7] abbreviates: dose 1,000, single intrajugular (IV) D5.
The mark [8] stands for this setting: dose 1,000, single intravaginal (Vag) D5.
The mark [9] stands for this setting: 100 μg intrauterine right horn D5.
[10] abbreviates: 200 μg intrauterine right horn D5.
[11] abbreviates: 300 μg intrauterine right horn D5.
Where [12] appears, read: 500 μg intrauterine right horn D5.
Where [13] appears, read: 1,000 μg intrauterine right horn D5.

As to “[D-Trp^6, des-Gly-NH2^10 ]LHRH ethylamide”, the “Viable Fetuses Mean, Left” value in test [1] (setting [4]) came to 6.5; in test [1] (setting [5]), 3.6; in test [1] (setting [6]), 3.3. Moreover, the entries for the “Viable Fetuses Mean, Right” value in test [1] (setting [4]), in test [1] (setting [5]) and in test [1] (setting [6]) were 3.8, 0.4 and 0.5, respectively.
As to “[D-Trp^6 -N-methyl-Leu^7 des-Gly NH2^10 ]LHRH ethylamide”, the “Single intra-uterine treatment dose sufficient to prevent pregnancy” value in test [1] amounted to 100 µg.
Consider “Luteinizing hormone releasing hormone [LHRH]”, for which the “Time to lysis of the zona pellucida” value in test [2] (15 μg/μl in 0.9 percent saline) is “about 60 minutes”. Besides, the “Time to lysis of the zona pellucida” value in test [2] (500 μg/μl in 0.9 percent saline) was “about 0.5 minutes”. In addition, the “Effect on pregnancy (viable fetuses, uterine weight, placental sites) in either horn” value in test [3] (1000 μg via jugular vein or vagina on D5) is “failed to alter the pregnancy in either horn; also recorded: inactive; also recorded: no negative effects”. In test [3] (setting [7]), the “Number of placental sites, left horn” value amounted to 0.6±0.2; the “Number of placental sites, right horn” value stood at 0.2±0.2; the “Number of viable fetuses, left horn” value is listed as 7.4±0.7; the “Number of viable fetuses, right horn” value is on record as 5.4±1.0. Moreover, in test [3] (setting [7]), the “Uterine weight, left horn” value stood at 26.3±3.0 and the “Uterine weight, right horn” value came to 18.2±3.9. Moreover, in test [3] (setting [8]), the “Number of placental sites, left horn” value stood at 0.4±0.2; the “Number of placental sites, right horn” value is 0.2±0.2; the “Number of viable fetuses, left horn” value is on record as 6.6±0.9; the “Number of viable fetuses, right horn” value was determined as 7.4±0.8. Also, in test [3] (setting [8]), the “Uterine weight, left horn” value came to 20.5±2.9 and the “Uterine weight, right horn” value is 21.4±2.0. In test [1] (setting [9]), the “Number of placental sites, left horn” value is given as 0.1 ± 0.1; the “Number of placental sites, right horn (injected)” value came out at 0.1 ± 0.1; the “Number of viable fetuses, left horn” value stood at 5.7 ± 0.4; the “Number of viable fetuses, right horn (injected)” value is recorded as 3.2 ± 0.3. Further, in test [1] (setting [9]), the “Uterine weight, left horn and contents” value is 19.1 ± 1.5; the “Uterine weight, right horn (injected) and contents” value amounted to 12.0 ± 1.0. In test [1] (setting [10]), the “Number of placental sites, left horn” value was determined as 0.1 ± 0.1; the “Number of placental sites, right horn (injected)” value is 1.6 ± 0.5; the “Number of viable fetuses, left horn” value is 5.4 ± 0.8; the “Number of viable fetuses, right horn (injected)” value turned out to be 1.7 ± 0.4. Moreover, in test [1] (setting [10]), the “Uterine weight, left horn and contents” value worked out at 19.4 ± 2.7; the “Uterine weight, right horn (injected) and contents” value is 6.5 ± 1.3. Moreover, in test [1] (setting [11]), the “Number of placental sites, left horn” value was 0.7 ± 0.6; the “Number of placental sites, right horn (injected)” value came to 1.3 ± 0.3; the “Number of viable fetuses, left horn” value came out at 6.5 ± 0.6; the “Number of viable fetuses, right horn (injected)” value is reported as 1.5 ± 0.4. Besides, in test [1] (setting [11]), the “Uterine weight, left horn and contents” value amounted to 21.2 ± 2.3; the “Uterine weight, right horn (injected) and contents” value stood at 6.9 ± 1.6. For the same substance, in test [1] (setting [12]), the “Number of placental sites, left horn” value was 0.5 ± 0.3; the “Number of placental sites, right horn (injected)” value is 1.5 ± 0.7; the “Number of viable fetuses, left horn” value came to 6.1 ± 0.7; the “Number of viable fetuses, right horn (injected)” value worked out at 1.3 ± 0.3. In test [1] (setting [12]), the “Uterine weight, left horn and contents” value is 21.8 ± 2.0; the “Uterine weight, right horn (injected) and contents” value is given as 6.0 ± 0.9. Also, in test [1] (setting [13]), the “Number of placental sites, left horn” value amounted to 0.3 ± 0.2; the “Number of placental sites, right horn (injected)” value is 2.3 ± 0.6; the “Number of viable fetuses, left horn” value came out at 6.9 ± 0.7; the “Number of viable fetuses, right horn (injected)” value was 0.8 ± 0.2 and 0.8. Further, in test [1] (setting [13]), the “Uterine weight, left horn and contents” value stood at 24.3 ± 2.5; the “Uterine weight, right horn (injected) and contents” value was determined as 4.3 ± 0.8. Besides, the “Number of placental sites vs control” value in test [1] (200-1000 μg intrauterine right horn D5) is “significant increase”. Besides, the “Number of viable fetuses in the right horn vs control” value in test [1] (all doses (100-1,000 μg) intrauterine right horn D5) is given as “significant reduction”. Further, the “Single intra-uterine treatment dose sufficient to prevent pregnancy” value in test [1] is reported as “about 1,000 μg”. Moreover, the “Effect on number of viable fetuses or uterine weight” value in the test on pregnancy (1000 μg injection (s.c.) on D5, Humphrey et al.) is reported as “failed to alter”. In addition, the “Effect on ensuing pregnancy” value in the test on pregnancy (acute subcutaneous injection of 5000 μg, Beattie and Corbin 1977) is given as “failed to inhibit the ensuing pregnancy”.
